These results are taken from patent US9254341B2, “Methods of manufacture of pteroyl-amino acid-fluorescent dyes” (On Target Laboratories, LLC, priority 2013, dated 2016).

“Also recorded” adds a separate entry of the source.

Series [1] deals with KB tumor xenografts (folate receptor positive). The series can be described thus: Comparative whole body imaging and tissue biodistribution with folate derived near IR agents. The format is in vivo. As to conditions: nude mice, KB tumors. On the procedure: (§1) KB cells (a human nasopharyngeal cell line) were obtained from American type culture collection (Rockville, Md.) and grown as a monolayer using folate free 1640 RPMI medium containing (Gibco, N.Y.) 10% heat-inactivated fetal bovine serum (Atlanta Biological, Ga.) and 1% penicillin streptomycin (Gibco, N.Y.) in a 5% carbon dioxide: 95% air-humidified atmosphere at 37° C. for at least six passages before they were used for the assays.
Athymic female nude mice (5 weeks old, 18-20 g) were purchased from Harlan Laboratories (Indianapolis, Ind.) and maintained on gamma-irradiated folate-deficient special diet (Teklad, Wis.) for at least 2 weeks before the start of the study. Animals were housed 5/cage in a barrier, pathogen-free cloaked rack. […]
Seven-week-old female nu/nu mice were inoculated subcutaneously with KB cells (1.0×10^6/mouse in folate free RPMI 1640 medium) on the shoulder. Growth of the tumors was measured In perpendicular directions every 2 days using a caliper (body weights were monitored on the same schedule), and the volumes of the tumors were calculated as 0.5×L×[…] (L=longest axis and W=axis perpendicular to L in millimeters). […]
(§2) Following whole body imaging, animals were dissected and selected tissues (heart, lung, liver, spleen, kidneys, stomach, small intestine, large intestine, muscle, skin, tumor) were analyzed for fluorescence activity using IVIS imager as before. […]

The nature of series [2]: Stability of OTL-0038 liquid, achiral HPLC. In kind it is physicochemical. As to conditions: for Achiral HPLC: Liquid 5 mg per ml, 2 ml fill, PBS, 1 month; for stability of the liquid: 5° C. How it is done:
(§3) Stability data of Pte-L Tyrosine-S0456 (OTL-0038):
At 40° C. the liquid lost 8.6% at 270 nm and 1% at 774 nm. At room temperature the liquid lost about 1.4% at 270 nm and 0.5% at 774 nm.

For series [3], the system named is A549 tumor xenografts (folate receptor negative). Nature of the series: Whole body imaging and biodistribution in mice bearing folate receptor-negative tumor xenografts. In kind it is in vivo. On the procedure: A549 cells (a alveolar basal epithelial carcinoma cell line) were obtained from American type culture collection (Rockville, Md.) and grown as a monolayer using 1640 RPMI medium containing (Gibco, N.Y.) 10% heat-inactivated fetal bovine serum (Atlanta Biological, Ga.) and 1% penicillin streptomycin (Gibco, N.Y.) in a 5% carbon dioxide: 95% air-humidified atmosphere at 37° C. for at least six passages before they were used for the assays.
Athymic female nude (nu/nu) mice (6 weeks old, 18-20 g) were purchased from Harlan Laboratories (Indianapolis, Ind.) and maintained on normal diet (Teklad, Wis.). Animals were housed 5/cage in a barrier, pathogen-free cloaked rack. Autoclaved tap water and food were given as needed. The animals were housed in a sterile environment on a standard 12 hours light-dark cycle for the duration of the study. Mice were identified individually by ear punch. All animal procedures were approved by Purdue Animal Care and Use Committee. Animal care and studies were performed according to national and international guidelines for the humane treatment of animals.
Seven-week-old female nu/nu mice were inoculated subcutaneously with A549 cells (1.0×10^6/mouse in RPMI 1640 medium) on the shoulder. Growth of the tumors was measured in perpendicular directions every 2 days using a caliper (body weights were monitored on the same schedule), and the volumes of the tumors were calculated as 0.5×L×W^2(L=longest axis and W=axis perpendicular to L in millimeters). Once tumors reached between 400 and 500 mm^3 in volume, animals (6 mice/group) were intravenously injected with 10 nmol of OTL-0038 in phosphate buffered saline (100 μL). After 2.5 h, animals were sacrificed by CO2 asphyxiation. Whole body imaging (intact tumor) experiments were then performed using a Caliper IVIS Lumina II Imaging Station with Living Image 4.0 software (PerkinElmer Inc, Mass.). Settings for imaging:-lamp level: medium; excitation: 745 nm; emission: ICG (indocyanine green); epi illumination; binning: 4 (M), FOV=12.5; f-stop=2; acquisition time=1 s.
Following whole body imaging, animals were dissected and selected tissues (heart, lung, liver, spleen, kidneys, stomach, small intestine, large intestine, muscle, skin, tumor) were analyzed for fluorescence activity using IVIS imager as before. Settings for imaging:-lamp level: medium; excitation: 745 nm; emission: ICG; epi illumination; binning: 4 (M), FOV=12.5; f-stop=2; acquisition time=1 s.

The next series concerns the target T1, folate receptors (Homo sapiens, UniProt P15328).
T1 construct: KB cells that overexpress FR-α were seeded in 24-well (100,000 cells/well) Falcon plates; endogenous in cells; host or cells: KB cells (ATCC), grown in folate-free RPMI 1640
Nature of the series: Competitive binding with [3H] folic acid on KB cells that overexpress FR-alpha. As to conditions: for Kd: read-out: dissociation constant (Kd); for Relative binding affinity: relative affinity of folic acid=1, molar ratio required to displace 50% of [3H] folic acid. On the procedure:
as §1
KB cells that overexpress FR-α were seeded in 24-well (100,000 cells/well) Falcon plates (BD Biosciences, Calif.) and allowed to form monolayers over a period of 12 hours. […] After incubating for 1 hour at 37° C., cells were rinsed with PBS (3×0.5 mL, Gibco, N.Y.) to remove any unbound radioactive materials. After adding 0.25 M sodium hydroxide (0.5 mL) and incubating for 12 hours at 4° C., cells were transferred into individual scintillation vials containing Ecolite scintillation cocktail (3.0 mL, MP Biomedicals, Ohio) and counted in a liquid scintillation analyzer (Packard). The relative binding affinities were calculated using a plot of % cell bound radioactivity versus the log concentration of the test article using GraphPad Prism 4.

Series [4] in a line: Stability of OTL-0038 lyophilized product, achiral HPLC. As to conditions: for Achiral HPLC: Lyophilization 5 mg per ml, 2 ml fill, Water, 1 month; for loss of the lyophilized product: 40° C.; for stability of the lyophilized product: first month. The format is physicochemical.
Excerpt: as §3

Series [5] relates to KB tumor xenografts (folate receptor positive). Nature of the series: Whole body imaging and tissue biodistribution in mice bearing folate receptor-positive tumor xenografts. In kind it is in vivo. As to conditions: nude mice, KB tumors, 10 nmol intravenously, 2.5 hours. How it is done:
as §1
Athymic female nude (nu/nu) mice (5 weeks old, 18-20 g) were purchased from Harlan Laboratories (Indianapolis, Ind.) and maintained on gamma-irradiated folate-deficient special diet (Teklad, Wis.) for at least 2 weeks before the start of the study. […]
Seven-week-old female nu/nu mice were inoculated subcutaneously with KB cells (1.0×10^6/mouse in folate free RPMI 1640 medium) on the shoulder. Growth of the tumors was measured in perpendicular directions every 2 days using a caliper (body weights were monitored on the same schedule), and the volumes of the tumors were calculated as 0.5×L×W^2 (L=longest axis and W=axis perpendicular to L in millimeters). […]
as §2

Series [6] concerns ovarian cancer malignant lesions. As to conditions: human ovarian cancer patients, intra-operative; cited from earlier work.

T1 sequence (P15328 25-234): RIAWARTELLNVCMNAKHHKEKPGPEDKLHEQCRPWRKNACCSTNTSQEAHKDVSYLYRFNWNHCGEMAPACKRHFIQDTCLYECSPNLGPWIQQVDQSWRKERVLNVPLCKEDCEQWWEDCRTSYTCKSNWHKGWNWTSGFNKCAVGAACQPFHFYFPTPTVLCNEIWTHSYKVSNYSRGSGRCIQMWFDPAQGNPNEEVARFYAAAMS

A word on the Kd: it is a measure of binding affinity in units of concentration. Regarding `CC1(C)C(=CC=C2CCCC(C=CC3=[N+](CCCCS(=O)(=O)[O-])c4ccc(S(=O)(=O)O)cc4C3(C)C)=C2Oc2ccc(C[C@H](NC(=O)c3ccc(NCc4cnc5nc(N)[nH]c(=O)c5n4)cc3)C(=O)O)cc2)N(CCCCS(=O)(=O)O)c2ccc(S(=O)(=O)O)cc21` [OTL-0038, PTE-L-Tyr-S0456], the “tumor fluorescence intensity, direct comparison” value in series [1] (10 nmol) is listed as “brighter (higher) than the mice treated with the other folate-conjugated near IR dyes”. Further, the “Whole body imaging: accumulation of fluorescence” value in series [1] (10 nmol intravenously, 2.5 hours) is listed as “accumulated predominantly in the folate receptor positive tumors”; in series [3] (nude mice, A549 tumors, 10 nmol intravenously, 2.5 h) it was “did not accumulated in the folate receptor negative tumors”; in series [5], “accumulated predominantly in the folate receptor positive tumors, with no substantial fluorescence activity in the other tissues”. In addition, the “Achiral HPLC” value in series [2] (5, 270 nm) is 95.88%; in series [2] (5, 774 nm), 94.29%; in series [2] (25, 270 nm), 94.43%; in series [2] (25, 774 nm), 94.05%; in series [2] (40, 270 nm), 87.17%; in series [2] (40, 774 nm), 93.56%. Also, the “Achiral HPLC” value in series [2] (−20, 270 nm) was determined as 95.80%; in series [2] (−20, 774 nm), 94.59%; in series [4] (5, 270 nm), 95.88%; in series [4] (5, 774 nm), 94.29%; in series [4] (25, 270 nm) it was 94.43%; in series [4] (25, 774 nm) it was 94.05%. The “Achiral HPLC” value in series [4] (40, 270 nm) stood at 87.17%; in series [4] (40, 774 nm) it was 93.56%; in series [4] (−20, 270 nm) it was 95.80%; in series [4] (−20, 774 nm), 94.59%. Further, the “stability of the liquid” value is “seems stable” in series [2] (270 nm) and “reasonably stable with a small degradation in purity” in series [2] (774 nm). Further, the “loss of the liquid” value in series [2] (40° C., 270 nm) is 8.6%; in series [2] (40° C., 774 nm) it was 1%; in series [2] (room temperature, 270 nm), “about 1.4%”; in series [2] (room temperature, 774 nm), 0.5%. The “tumor uptake (ex vivo fluorescence)” value in series [3] (A549 folate receptor negative tumors, 10 nmol, 2.5 h) is “no fluorescence was observed in folate receptor negative tumors”. Moreover, in series [3] (conclusion of the folate receptor-negative tumor study), the “in vivo specificity for folate receptor” value was “highly specific for folate receptor”. In series [3] (folate receptor-positive kidneys, 10 nmol, 2.5 h), the “kidney uptake (ex vivo fluorescence)” value is given as “high kidney uptake”. In addition, the “competition with [3H] folic acid” value on folate receptors (KB cells) is listed as “competed well”. Also, the dissociation constant Kd on folate receptors worked out at 10.4 nM. At folate receptors, the Relative binding affinity is given as 0.71. Besides, the “loss of the lyophilized product” value in series [4] (270 nm) worked out at 4.5%; in series [4] (774 nm), 1.1%. The “stability of the lyophilized product” value in series [4] (less than room temperature) is given as “stable at less than room temperature for the first month”; in series [4] (room temperature), “stable at the first month”. Further, the “Tissue biodistribution: fluorescence in dissected tissues” value in series [5] (ex vivo IVIS) is “highest fluorescence intensity was observed in FR-positive tumors with no accumulation in the other tissues except the kidneys; also recorded: mainly accumulated in folate receptor positive tumor xenografts and kidneys”.

For the compound “folate-ethelenediamine-fluorescein isothiocyanate [EC17]”, in series [6], the “malignant lesions removed with the aid of the dye than without it” value was ~5 ×.

Turning to `CC1(C)C(=CC=C2CCCC(C=CC3=[N+](CCCCS(=O)(=O)[O-])c4ccc(S(=O)(=O)O)cc4C3(C)C)=C2Oc2ccc(C[C@@H](NC(=O)c3ccc(NCc4cnc5nc(N)[nH]c(=O)c5n4)cc3)C(=O)O)cc2)N(CCCCS(=O)(=O)O)c2ccc(S(=O)(=O)O)cc21` [OTL-0039, PTE-D-Tyr-S0456], the “affinity for folate receptor, comparison in words” value on folate receptors (KB cells) is “lower affinity for folate receptor when compared to folic acid and OTL-0038”. Besides, at folate receptors, the Kd is 81.8 nM and the Relative binding affinity is reported as 0.09.
